Data from PubChem BioAssay AID504461 (NMMLSC, 2011).
Active and inactive are the calls of the source.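 Rule for the calls: active = compounds whose fitted half-effect concentration on CIT2 GFP level is 33 micromolar or lower; inactive = the rest.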

system: not listed separately; experiment: CIT2-GFP expression modulators in yeast, SAR follow-up, flow cytometry, KU set 2, dose response (AID 504461); conditions: S. cerevisiae CIT2-GFP strain, flow cytometry GFP, 3 h; at 100 µM (top of the series)

| SMILES | GFP fluorescence (kMESF) |
| --- | --- |
| CNc1nc(NC)c([N+](=O)[O-])c(Nc2cccc(Cl)c2)n1 | 3.32 kMESF (inactive) |
| CNc1nc(N)c([N+](=O)[O-])c(Nc2ccccc2Br)n1 | 3.6 kMESF (inactive) |
| CNc1nc(N)c([N+](=O)[O-])c(Nc2cccc(Oc3ccccc3)c2)n1 | 3.53 kMESF (inactive) |
| CNc1nc(N)c([N+](=O)[O-])c(Nc2cccc(OC)c2)n1 | 5.3 kMESF (inactive) |
| CCNc1nc(NC2CCCCC2)c([N+](=O)[O-])c(N2CCOCC2)n1 | 3.39 kMESF (inactive) |
| CNc1nc(NC2CCCCC2)c([N+](=O)[O-])c(N2CCOCC2)n1 | 3.39 kMESF (inactive) |
| CNc1nc(N)c([N+](=O)[O-])c(Nc2ccccc2F)n1 | 4.24 kMESF (inactive) |
| CNc1nc(N)c([N+](=O)[O-])c(Nc2cccc(Br)c2)n1 | 5.3 kMESF (inactive) |

same assay, conditions: S. cerevisiae CIT2-GFP strain, flow cytometry GFP, 3 h; at 300 µM (top of the series)

| SMILES | GFP fluorescence (kMESF) |
| --- | --- |
| COc1cccc(-c2cc(Nc3cc(C)[nH]n3)nc(NCc3ccccc3)n2)c1 | 4.64 kMESF (inactive) |
| CNc1nc(N)cc(Oc2cccc(Cl)c2)n1 | 3.55 kMESF (inactive) |
| CNc1nc(N)cc(Nc2cccc(Cl)c2)n1 | 4.78 kMESF (inactive) |
| CNc1nc(N)cc(Nc2ccccc2F)n1 | 5.53 kMESF (inactive) |
| Cc1cc(Nc2cc(Nc3ccccc3)nc(NCc3ccccc3)n2)n[nH]1 | 4.57 kMESF (inactive) |
| COc1ccccc1-c1cc(Nc2cc(C)[nH]n2)nc(NCc2ccccc2)n1 | 4.5 kMESF (inactive) |
| CCOC(=O)c1c(N)nc(NC)nc1Nc1cccc(F)c1 | 5.12 kMESF (inactive) |
| COC(=O)c1cccc(-c2cc(Nc3cc(C)[nH]n3)nc(NCc3ccccc3)n2)c1 | 4.85 kMESF (inactive) |
| Cc1cc(Nc2cc(-c3ccccc3)nc(NCc3ccccc3)n2)n[nH]1 | 4.23 kMESF (inactive) |
| O=[N+]([O-])c1c(NC2CCCCC2)nc(NCc2ccccc2)nc1N1CCOCC1 | 4.5 kMESF (inactive) |

system: S. cerevisiae CIT2-GFP strain, flow cytometry GFP, 3 h; experiment: as above; conditions: not given

| EC50 | SMILES |
| --- | --- |
| 129 µM (inactive) | CNc1nc(N)c(C(=O)c2ccc(C)c(C)c2)c(Nc2cccc(Cl)c2)n1 |
| 73.5 µM (inactive) | CCNc1nc(N)c([N+](=O)[O-])c(Nc2cccc(Cl)c2)n1 |
